The text below walks through data of patent publication US20260365653A1, “IRREVERSIBLE MUTEGFR INHIBITORS” (Bayer Aktiengesellschaft, priority 2022, published 2026).

The target of test [1] is T1, mutEGFR (D770_N771insNPG, T790) (Homo sapiens, UniProt P00533, INS770NPG/T790M).
T1 construct: exact insNPG construct not described; in-house EGFR proteins were N-terminal GST fusions from baculovirus/insect cells (borders R669-A1210 given only for WT, insSVD, insASV)
The experiment in a line: mutEGFR (D770_N771insNPG, T790) kinase assay. It is filed as biochemical. An excerpt: The different EGFR proteins used in the biochemical kinase activity inhibition assays were generated inhouse by expression in insect cells using Baculo Virus system and subsequent purification as described in the following paragraphs.
The cDNAs encoding the various protein sequences from human EGFR human (P00533) were optimized for expression in eukaryotic cells and synthesized by the GeneArt Technology at Life Technologies.

For test [2], the target named is T2, mutEGFR (D770_N771insSVD) (Homo sapiens, UniProt P00533, DUP768-770).
T2 construct: GST-EGFR #3 (SVD between D770 and N771); made in house; host or cells: Sf9 insect cells (baculovirus)
The experiment in a line: Exon20-Mutant-EGFR (D770_N771insSVD) kinase assay (TR-FRET). The class given is biochemical. A general note: TR-FRET usually uses a lanthanide donor and a delayed reading to cut background.

Another test relates to BA/F3 (insSVD) cells. Nature of the test: Ba/F3-EGFR-insSVD cell survival assay (Cell Titer-Glo). The class given is cell-based. A digest of the protocol: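 Ba/F3 cells stably expressing retroviral EGFR-insSVD or insSVD T790M, grown without IL-3 on 10 ng/ml EGF, 4000 cells/well. Compound pinned in, 48 h at 37° C. Viability by CellTiter-Glo luminescence.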
(In general: Cellular ATP, detected with luciferase, serves as a proxy for viable cell number.)

The mark [3] stands for this setting: mutEGFR (D770_N771insSVD) kinase assay IC50, Table 2a, D770_N771insSVD, 2 mM ATP.
Where [4] appears, read: Mus musculus, BaF3, 48 h, Table 3a, cell survival, Cell Titer-Glo, with 10 ng/ml EGF, without IL-3.
[5] abbreviates: Table 3a, cell survival, Cell Titer-Glo, with 10 ng/ml EGF, without IL-3, 48 h.

T2 sequence (P00533 with tags, fused parts or gaps DUP768-770): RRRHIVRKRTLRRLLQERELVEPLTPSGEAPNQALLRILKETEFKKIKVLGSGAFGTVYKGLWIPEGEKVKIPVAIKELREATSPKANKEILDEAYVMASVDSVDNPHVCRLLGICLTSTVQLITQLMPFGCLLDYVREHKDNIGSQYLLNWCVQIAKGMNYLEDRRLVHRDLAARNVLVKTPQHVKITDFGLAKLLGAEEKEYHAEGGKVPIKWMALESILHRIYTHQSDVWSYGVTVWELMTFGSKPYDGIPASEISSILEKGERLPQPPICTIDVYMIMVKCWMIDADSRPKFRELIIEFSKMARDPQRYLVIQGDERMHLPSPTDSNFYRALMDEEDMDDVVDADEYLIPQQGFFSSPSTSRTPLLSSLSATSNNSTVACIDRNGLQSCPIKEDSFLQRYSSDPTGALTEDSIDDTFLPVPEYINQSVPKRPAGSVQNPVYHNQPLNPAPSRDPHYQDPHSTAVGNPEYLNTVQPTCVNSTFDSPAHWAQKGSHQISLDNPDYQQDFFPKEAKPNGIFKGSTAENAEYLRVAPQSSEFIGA
T1 sequence (P00533 with tags, fused parts or gaps INS770NPG/T790M limits assumed): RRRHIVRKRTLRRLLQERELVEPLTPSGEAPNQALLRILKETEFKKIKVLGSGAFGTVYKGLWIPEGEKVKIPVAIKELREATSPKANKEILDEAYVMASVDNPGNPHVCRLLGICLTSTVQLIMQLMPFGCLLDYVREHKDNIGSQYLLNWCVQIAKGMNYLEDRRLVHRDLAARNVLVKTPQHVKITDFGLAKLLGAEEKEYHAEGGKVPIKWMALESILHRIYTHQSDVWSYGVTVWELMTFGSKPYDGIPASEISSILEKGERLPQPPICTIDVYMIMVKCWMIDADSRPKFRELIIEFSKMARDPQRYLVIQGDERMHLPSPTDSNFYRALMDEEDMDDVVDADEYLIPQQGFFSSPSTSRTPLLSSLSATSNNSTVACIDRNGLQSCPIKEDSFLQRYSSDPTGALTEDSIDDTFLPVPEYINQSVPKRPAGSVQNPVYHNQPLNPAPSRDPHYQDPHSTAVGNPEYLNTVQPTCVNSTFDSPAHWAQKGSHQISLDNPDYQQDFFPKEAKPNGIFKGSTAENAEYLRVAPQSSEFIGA

As for `C=CC(=O)N1CCn2nc(-c3ccc(C(F)(F)F)cc3)c(-c3ccnc4[nH]c(C)cc34)c2C1` [Example 54, 1-[3-(2-methyl-1H-pyrrolo[2,3-b]pyridin-4-yl)-2-[4-(trifluoromethyl)phenyl]-6,7-dihydropyrazolo[1,5-a]pyrazin-5(4H)-yl]prop-2-en-1-one], the IC50 in test [1] (Table 2a, D770_N771insNPG) was 3470 nM; in test [2] (setting [3]) it was 89 nM; in the test on BA/F3 (insSVD) cells (setting [4]), 498 nM.

Regarding `CN(C)C/C=C/C(=O)N1CCn2nc(-c3ccc(Cl)cc3CO)c(-c3ccncc3)c2C1` [Example 35, (2E)-1-{2-[4-chloro-2-(hydroxymethyl)phenyl]-3-(pyridin-4-yl)-6,7-dihydropyrazolo[1,5-a]pyrazin-5(4H)-yl}-4-(dimethylamino)but-2-en-1-one], the IC50 stood at 2.94 nM in test [1] (Table 2a, D770_N771insNPG); 1.36 nM in test [2] (setting [3]); 802 nM in the test on BA/F3 (insSVD) cells (setting [4]).

As to `COc1ccc(-c2nn3c(c2-c2ccncc2)CN(C(=O)/C=C/CN(C)C)CC3)cc1Cl` [Example 27, (2E)-1-[2-(3-chloro-4-methoxyphenyl)-3-(pyridin-4-yl)-6,7-dihydropyrazolo[1,5-a]pyrazin-5(4H)-yl]-4-(dimethylamino)but-2-en-1-one], the IC50 came out at 3.02 nM in test [1] (Table 2a, D770_N771insNPG); 3.77 nM in test [2] (setting [3]); 679 nM in the test on BA/F3 (insSVD) cells (setting [4]).

For the compound `Cc1c[nH]c2nccc(-c3c(-c4ccc(F)cc4)nn4c3CN(C(=O)/C=C/CN(C)C)[C@@H](C)C4)c12` [Example 257, (2E)-4-(dimethylamino)-1-[(6S)-2-(4-fluorophenyl)-6-methyl-3-(3-methyl-1H-pyrrolo[2,3-b]pyridin-4-yl)-6,7-dihydropyrazolo[1,5-a]pyrazin-5(4H)-yl]but-2-en-1-one], the IC50 in test [1] (Table 2a, D770_N771insNPG) was found to be 20.8 nM; in test [2] (setting [3]), 69.7 nM; in the test on BA/F3 (insSVD) cells (setting [4]), 30.7 nM.

In the case of `O=C(C#CCN1CCOCC1)N1CCn2nc(-c3ccc(F)cc3)c(-c3ccncc3)c2C1` [Example 68, 1-[2-(4-fluorophenyl)-3-(pyridin-4-yl)-6,7-dihydropyrazolo[1,5-a]pyrazin-5(4H)-yl]-4-(morpholin-4-yl) but-2-yn-1-one], the IC50 in test [1] (Table 2a, D770_N771insNPG) turned out to be 11.9 nM; in test [2] (setting [3]), 5.33 nM; in the test on BA/F3 (insSVD) cells (setting [4]), 60.2 nM.

As to `COc1ccc(-c2nn3c(c2-c2ccncc2)CN(C(=O)/C=C/CN(C)C)CC3)c(F)c1` [Example 160, (2E)-4-(dimethylamino)-1-[2-(2-fluoro-4-methoxyphenyl)-3-(pyridin-4-yl)-6,7-dihydropyrazolo[1,5-a]pyrazin-5(4H)-yl]but-2-en-1-one], the IC50 in test [1] (Table 2a, D770_N771insNPG) stood at 6.58 nM; in test [2] (setting [3]) it was 1.48 nM; in the test with BA/F3 (insSVD) cells (setting [4]) it was 973 nM.

As to `O=C(/C=C/CN1CCCC1)N1CCn2nc(-c3ccc(Cl)cc3)c(-c3ccncc3)c2C1` [Example 171, (2E)-1-[2-(4-chlorophenyl)-3-(pyridin-4-yl)-6,7-dihydropyrazolo[1,5-a]pyrazin-5(4H)-yl]-4-(pyrrolidin-1-yl)but-2-en-1-one], the 50% inhibitory concentration (IC50) in test [1] (Table 2a, D770_N771insNPG) was found to be 0.406 nM; in test [2] (setting [3]), 0.136 nM; with BA/F3 (insSVD) cells (setting [4]), 33.7 nM.

With `C=CC(=O)N1CCn2nc(-c3cccc(Cl)c3)c(-c3ccnc4[nH]cc(C)c34)c2C1` [Example 177, 1-[2-(3-chlorophenyl)-3-(3-methyl-1H-pyrrolo[2,3-b]pyridin-4-yl)-6,7-dihydropyrazolo[1,5-a]pyrazin-5(4H)-yl]prop-2-en-1-one], the IC50 in test [1] (Table 2a, D770_N771insNPG) came to 17.8 nM; in test [2] (setting [3]) it was 43.2 nM; with BA/F3 (insSVD) cells (setting [4]), 58.7 nM.

For the compound `O=C(/C=C/CN1CC(F)(F)C1)N1CCn2nc(-c3ccc(F)cc3)c(-c3ccncc3)c2C1` [Example 84, (2E)-4-(3,3-difluoroazetidin-1-yl)-1-[2-(4-fluorophenyl)-3-(pyridin-4-yl)-6,7-dihydropyrazolo[1,5-a]pyrazin-5(4H)-yl]but-2-en-1-one], the half-inhibitory concentration (IC50) was 50.6 nM in test [1] (Table 2a, D770_N771insNPG); 13.4 nM in test [2] (setting [3]); 1230 nM in the test with BA/F3 (insSVD) cells (setting [4]).

Turning to `CC1c2c(-c3ccnc4[nH]ccc34)c(-c3ccc(C(F)(F)F)cc3)nn2CCN1C(=O)/C=C/CN(C)C` (single isomer, unassigned; isomer 1) [Example 264, (E)-4-(dimethylamino)-1-(4-methyl-3-(1H-pyrrolo[2,3-b]pyridin-4-yl)-2-(4-(trifluoromethyl)phenyl)-6,7-dihydropyrazolo[1,5-a]pyrazin-5(4H)-yl) but-2-en-1-one (isomer 1)], the IC50 is 1130 nM in test [1] (Table 2a, D770_N771insNPG); 765 nM in test [2] (setting [3]); 128 nM in the test with BA/F3 (insSVD) cells (setting [5]).

As for `C=CC(=O)N1CCn2nc(-c3ccc(Cl)cc3F)c(-c3c(F)cnc4[nH]ccc34)c2C1` [Example 51, 1-[2-(4-chloro-2-fluorophenyl)-3-(5-fluoro-1H-pyrrolo[2,3-b]pyridin-4-yl)-6,7-dihydropyrazolo[1,5-a]pyrazin-5(4H)-yl]prop-2-en-1-one], the IC50 in test [1] (Table 2a, D770_N771insNPG) turned out to be 25.7 nM; in test [2] (setting [3]), 6.64 nM; in the test on BA/F3 (insSVD) cells (setting [4]), 54.7 nM.

For the compound `CN(C)C/C=C/C(=O)N1CCn2nc(-c3ccc(Cl)c(Cl)c3)c(-c3ccncc3)c2C1` [Example 29, (2E)-1-[2-(3,4-dichlorophenyl)-3-(pyridin-4-yl)-6,7-dihydropyrazolo[1,5-a]pyrazin-5(4H)-yl]-4-(dimethylamino)but-2-en-1-one], the concentration for half-maximal inhibition (IC50) in test [1] (Table 2a, D770_N771insNPG) came out at 1.54 nM; in test [2] (setting [3]), 1.19 nM; in the test on BA/F3 (insSVD) cells (setting [4]), 422 nM.

`CN(C)C/C=C/C(=O)N1CCn2nc(-c3ccc4[nH]ccc4c3)c(-c3ccncc3)c2C1` [Example 197, (2E)-4-(dimethylamino)-1-[2-(1H-indol-5-yl)-3-(pyridin-4-yl)-6,7-dihydropyrazolo[1,5-a]pyrazin-5(4H)-yl]but-2-en-1-one]: the IC50 in test [1] (Table 2a, D770_N771insNPG) was 8.01 nM; in test [2] (setting [3]), 1.45 nM; with BA/F3 (insSVD) cells (setting [4]), 995 nM.

With `CN(C)C/C=C/C(=O)N1Cc2c(-c3ccncc3)c(-c3ccc(F)cc3)nn2C(C)(C)C1` [Example 213, (2E)-4-(dimethylamino)-1-[2-(4-fluorophenyl)-7,7-dimethyl-3-(pyridin-4-yl)-6,7-dihydropyrazolo[1,5-a]pyrazin-5(4H)-yl]but-2-en-1-one], the IC50 in test [1] (Table 2a, D770_N771insNPG) is 3.27 nM; in test [2] (setting [3]), 0.902 nM; in the test on BA/F3 (insSVD) cells (setting [4]), 112 nM.

On to `C=CC(=O)N1CCn2nc(-c3ccc(C(F)(F)F)cc3)c(-c3ccnc4[nH]ccc34)c2C1C` (single isomer, unassigned; isomer 1) [Example 258, 1-(4-methyl-3-(1H-pyrrolo[2,3-b]pyridin-4-yl)-2-(4-(trifluoromethyl)phenyl)-6,7-dihydropyrazolo[1,5-a]pyrazin-5(4H)-yl) prop-2-en-1-one (isomer 1)], for which the IC50 was 1070 nM in test [1] (Table 2a, D770_N771insNPG); 100 nM in test [2] (setting [3]); 82.6 nM with BA/F3 (insSVD) cells (setting [5]).

In the case of `C=CC(=O)N1CCn2nc(-c3cccc(F)c3)c(-c3ccncc3)c2C1` [Example 4, 1-[2-(3-fluorophenyl)-3-(pyridin-4-yl)-6,7-dihydropyrazolo[1,5-a]pyrazin-5(4H)-yl]prop-2-en-1-one], the IC50 was 1.47 nM in test [1] (Table 2a, D770_N771insNPG); 1.47 nM in test [1] (Table 2b (from US Priority Patent Application), mutEGFR D770_N771insNPG); 1.45 nM in test [2] (setting [3]); 1.45 nM in test [2] (mutEGFR (D770_N771insSVD) kinase assay IC50, Table 2b (from US Priority Patent Application), mutEGFR D770_N771insSVD); 50.5 nM with BA/F3 (insSVD) cells (setting [4]); 50.5 nM in the test on BA/F3 (insSVD) cells (Mus musculus, BaF3, 48 h, Table 3b, Ba/F3 EGFR-insSVD).

With `NC1(C#CC(=O)N2CCn3nc(-c4ccc(F)cc4)c(-c4ccncc4)c3C2)CC1` [Example 89, 3-(1-aminocyclopropyl)-1-[2-(4-fluorophenyl)-3-(pyridin-4-yl)-6,7-dihydropyrazolo[1,5-a]pyrazin-5(4H)-yl]prop-2-yn-1-one], the IC50 is 8.7 nM in test [1] (Table 2a, D770_N771insNPG); 6.06 nM in test [2] (setting [3]); 5060 nM in the test on BA/F3 (insSVD) cells (setting [4]).

On to `C=CC(=O)N1CCn2nc(-c3cc(Cl)ccc3F)c(-c3ccnc4[nH]cc(C)c34)c2C1` [Example 180, 1-[2-(5-chloro-2-fluorophenyl)-3-(3-methyl-1H-pyrrolo[2,3-b]pyridin-4-yl)-6,7-dihydropyrazolo[1,5-a]pyrazin-5(4H)-yl]prop-2-en-1-one], for which the IC50 in test [1] (Table 2a, D770_N771insNPG) was 61.5 nM; in test [2] (setting [3]) it was 158 nM; in the test on BA/F3 (insSVD) cells (setting [4]) it was 112 nM.

`C=CC(=O)N1CCn2nc(-c3cc4ccccc4cc3F)c(-c3ccncc3)c2C1` [Example 109, 1-[2-(3-fluoronaphthalen-2-yl)-3-(pyridin-4-yl)-6,7-dihydropyrazolo[1,5-a]pyrazin-5(4H)-yl]prop-2-en-1-one]: the IC50 in test [1] (Table 2a, D770_N771insNPG) came to 0.149 nM; in test [2] (setting [3]) it was 0.111 nM; in the test with BA/F3 (insSVD) cells (setting [4]) it was 42 nM.

Take `CC1Cn2nc(-c3ccc(Cl)cc3F)c(-c3ccncc3)c2CN1C(=O)/C=C/CN(C)C` (racemic) [Example 235, (2E)-1-[(RS)-2-(4-chloro-2-fluorophenyl)-6-methyl-3-(pyridin-4-yl)-6,7-dihydropyrazolo[1,5-a]pyrazin-5(4H)-yl]-4-(dimethylamino)but-2-en-1-one]: the IC50 in test [1] (Table 2a, D770_N771insNPG) is 0.592 nM; in test [2] (setting [3]), 0.18 nM; in the test on BA/F3 (insSVD) cells (setting [4]), 24.1 nM.

Broadly, the IC50 is the concentration that inhibits the measured activity by half. The low end stands for higher potency, the high end for lower potency.
